Assay results as given in US20090143455A1, “Pyrazoles Useful in the Treatment of Inflammation” (priority 2005, published 2009).
pIC50: −log10 of the molar value.

target: T1, purified human 15-lipoxygenase (Homo sapiens, UniProt P16050); assay: 15-lipoxygenase inhibition assay (arachidonic acid oxidation, HPLC readout); type: biochemical; conditions: arachidonic acid substrate, room temperature
T1 sequence (P16050 1-662): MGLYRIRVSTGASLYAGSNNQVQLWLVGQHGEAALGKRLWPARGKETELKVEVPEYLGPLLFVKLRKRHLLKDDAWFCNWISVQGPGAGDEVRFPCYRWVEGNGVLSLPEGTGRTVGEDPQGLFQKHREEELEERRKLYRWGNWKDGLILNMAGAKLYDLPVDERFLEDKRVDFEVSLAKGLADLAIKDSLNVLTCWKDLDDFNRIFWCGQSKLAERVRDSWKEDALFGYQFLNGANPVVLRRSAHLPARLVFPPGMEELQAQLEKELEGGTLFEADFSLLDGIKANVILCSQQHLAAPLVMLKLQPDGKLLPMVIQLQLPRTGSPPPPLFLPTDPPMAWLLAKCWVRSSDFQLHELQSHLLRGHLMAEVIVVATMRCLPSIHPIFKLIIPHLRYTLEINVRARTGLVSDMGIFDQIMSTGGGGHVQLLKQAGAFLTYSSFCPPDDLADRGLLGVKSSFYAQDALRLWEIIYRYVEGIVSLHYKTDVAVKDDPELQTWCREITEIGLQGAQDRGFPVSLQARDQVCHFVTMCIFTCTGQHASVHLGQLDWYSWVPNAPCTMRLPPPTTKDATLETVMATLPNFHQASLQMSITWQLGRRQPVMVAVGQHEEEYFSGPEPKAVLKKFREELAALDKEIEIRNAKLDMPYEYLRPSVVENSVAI
Method: The assay employed takes advantage of the ability of lipoxygenases to oxidize polyunsaturated fatty acids, containing a 1,4-cis-pentadiene configuration, to their corresponding hydroperoxy or hydroxyl derivatives. In this particular assay, the lipoxygenase was a purified human 15-lipoxygenase and the fatty acid was arachidonic acid. The assay is performed at room temperature (20-22° C.) and the following are added to each well in a 96-well microtiter plate:
a) 35 μL phosphate buffered saline […] (pH 7.4); b) inhibitor (i.e. compound) or vehicle (0.5 μl DMSO); c) 10 μL of a 10× concentrated solution of 15-lipoxygenase in PBS. […] The plate is then incubated for 10 minutes at room temperature; e) the enzymatic reaction is terminated by the addition of 100 μl MeOH; and f) the amount of 15-hydroperoxy-eicosatetraenoic acid or 15-hydroxy-eicosatetraenoic acid is measured by reverse phase HPLC.

| pIC50 | SMILES |
| --- | --- |
| 7.16 | O=C(Nc1ccccc1OC(F)F)c1cc(Cl)[nH]n1 [Example 19, 5-Chloro-N-(2-difluoro-methoxyphenyl)pyrazole-3-carboxamide] |
| 7.11 | O=C(Nc1ccc(Cl)cc1)c1cc(Cl)[nH]n1 [Example 8, 5-Chloro-N-(4-chlorophenyl)pyrazole-3-carboxamide] |
| 6.74 | O=C(Nc1ccc(F)cc1)c1cc(Cl)[nH]n1 [Example 7, 5-Chloro-N-(4-fluorophenyl)pyrazole-3-carboxamide] |
| 6.58 | O=C(Nc1ccc(F)cc1F)c1cc(Cl)[nH]n1 [Example 5, 5-Chloro-N-(2,4-difluorophenyl)pyrazole-3-carboxamide] |
